In brackets after ≈: the same amount, converted by molar mass.
Experiment: Solubility test (shaken at 20° C. for 3 hours, filtered, HPLC)
Format: physicochemical
Conditions: for Solubility / solubility at 3 h: 20° C., shaken 3 hours; for Solubility rank among Forms α, β, γ: in each solvent measured; for solubility at 3 h: 20 °C, thermodynamic from solid
Experimental: Each sample (i.e., Forms α, β, and γ of Compound A) was weighed to a 4-mL-volume glass vial. A test solution (3 mL) was added to the vial and the mixture was suspended. About 150 mg of the sample was weighed for the test solution of the 1st fluid for solubility test of The Japanese Pharmacopoeia and about 15 mg was weighed for the test solutions of the 2nd fluid for solubility test of The Japanese Pharmacopoeia and water. Each mixture was shaken with a constant temperature incubator shaker (manufactured by TAITEC) at 20° C. for 3 hours. After being shaken, the supernatant was filtered through a polytetrafluoroethylene disk filter (Millex-LG; manufactured by Millipore) with the 0.2-μm pore size and 4-mm diameter. The measurement was performed by high-performance liquid chromatography (HPLC).

[1] = Solvent: JP 1st fluid for solubility test, pH about 1.2
[2] = Solvent: JP 2nd fluid for solubility test (water / phosphate buffer pH 6.8, 1:1)

Row | Structure (SMILES) | Solubility [1] | Solubility [2] | Solubility (Solvent: Water) | Solubility rank among Forms α, β, γ | solubility at 3 h (JP 1st fluid for solubility test, pH 1.2, simulated gastric fluid, Solvent: JP 1st fluid for solubility test, pH about 1.2) | solubility at 3 h (JP 2nd fluid for solubility test, pH 6.8, aqueous buffer, Solvent: JP 2nd fluid for solubility test (water / phosphate buffer pH 6.8, 1:1)) | solubility at 3 h (water, water, Solvent: Water)
1 | C[C@H]1CN(C(=O)CC#N)[C@]12CCN(c1ncnc3[nH]ccc13)C2 [Form γ, 3-((3S,4R)-3-methyl-6-(7H-pyrrolo[2,3-d]pyrimidin-4-yl)-1,6-diazaspiro[3.4]octan-1-γ 1)-3-oxopropanenitrile] | 36400 µg/mL (≈ 117 mM) | 1500 µg/mL (≈ 4.83 mM) | 1500 µg/mL (≈ 4.83 mM) | lowest solubility |  |  | 
2 | C[C@H]1CN(C(=O)CC#N)[C@]12CCN(c1ncnc3[nH]ccc13)C2 [Form β, 3-((3S,4R)-3-methyl-6-(7H-pyrrolo[2,3-d]pyrimidin-4-yl)-1,6-diazaspiro[3.4]octan-1-γ 1)-3-oxopropanenitrile] | 39100 µg/mL (≈ 126 mM) | 2100 µg/mL (≈ 6.77 mM) | 2000 µg/mL (≈ 6.44 mM) |  |  |  | 
3 | C[C@H]1CN(C(=O)CC#N)[C@]12CCN(c1ncnc3[nH]ccc13)C2 [Form α, 3-((3S,4R)-3-methyl-6-(7H-pyrrolo[2,3-d]pyrimidin-4-yl)-1,6-diazaspiro[3.4]octan-1-γ 1)-3-oxopropanenitrile] |  |  |  | highest solubility | 45000 µg/mL (≈ 145 mM) | 2700 µg/mL (≈ 8.7 mM) | 2600 µg/mL (≈ 8.38 mM)
